Experimental data published in patent US8431596B2 (Cancer Research Technology Limited, priority 2007, dated 2013).
“And” between values parts separate entries of the source, which are not always exact repeats. Equal entries are not always repeated.

Target: T1, AXL (human catalytic domain) (Homo sapiens, UniProt P30530)
T1 construct: purchased Upstate Ltd. 14-512
T1 sequence (P30530 473-894): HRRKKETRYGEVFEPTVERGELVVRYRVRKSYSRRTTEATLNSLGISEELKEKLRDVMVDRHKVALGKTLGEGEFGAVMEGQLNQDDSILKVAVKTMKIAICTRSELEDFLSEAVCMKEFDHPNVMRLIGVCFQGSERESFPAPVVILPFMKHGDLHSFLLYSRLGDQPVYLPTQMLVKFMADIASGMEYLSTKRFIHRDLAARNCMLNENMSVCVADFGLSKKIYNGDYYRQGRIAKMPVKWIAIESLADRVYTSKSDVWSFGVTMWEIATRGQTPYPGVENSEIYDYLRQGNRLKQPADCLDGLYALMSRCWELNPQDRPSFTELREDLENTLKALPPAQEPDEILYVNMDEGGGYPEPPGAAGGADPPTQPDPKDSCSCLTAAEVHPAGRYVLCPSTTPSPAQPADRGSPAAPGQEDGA
Experiment: AXL (human catalytic domain) Enzyme Activity Assay (IMAP fluorescence polarisation)
Assay type: biochemical
Protocol: Biological Methods AXL (human catalytic domain) Enzyme Activity Assay Reagents
Kinase Assay Reaction Buffer: This consisted of 20 mM HEPES pH 7.0, 10 mM MgCl2, 1 mM DTT, […], 0.01% Triton X100 (v/v), and 0.01% BSA (w/v). All buffer components were purchased from Sigma-Aldrich at reagent grade or higher.
Kinase: Recombinant AXL isoform 1 (aa473-894 corresponding to Genbank Accession Number NP 068713) at 2 mg/mL (20.8 μM) was purchased from Upstate Ltd. (Product code 14-512, lot #28164U). The enzyme was stored at −80° C. and a working stock was prepared to a concentration of 30 nM by diluting 20.8 μM stock 1:693 in cold (4° C.) 1× Reaction Buffer. Final enzyme concentration in the assay was 15 nM.
Substrate: Fluorescein labelled CSK-tide 5FAM-[…]-NH2 was obtained from Molecular Devices (Product code R7270) and used at a working concentration of 200 nM by diluting the 100 μM stock 1:500 in 1× Reaction Buffer in a mix with the enzyme. A negative control (lacking enzyme) was prepared at the same concentrations. Final substrate concentration in the assay was 100 nM.
ATP: Supplied by Sigma (product code A-7699). A 100 mM ATP stock was prepared in […] and used at a working concentration of 375 μM by diluting the 100 mM stock 1:266.6 in Reaction Buffer. Final ATP concentration in the assay was 150 μM; this concentration represents the KM.ATP for this enzyme calculated in this assay.
IMAP Reagents: IMAP screening express kit was obtained from Molecular Devices (product code R8127). The binding reagent was gently re-suspended before diluting by 1:1000 in buffer (Binding Buffer is supplied as a 5× stock and so was diluted with water prior to use—this assay used 40% buffer A and 60% buffer B) and then vortexed before addition to wells. The binding reagent was used at a final dilution of 1:1333.
1 μL samples of test compounds in 10% DMSO/water were added to “test” wells by dry-spotting using a Matrix Platemate Plus. 5 μL Kinase/Substrate in Reaction Buffer were added to columns 1-22 of a Corning black low binding 384 well #6754 (90 μL volume) microplate to give 12 nM and 100 nM reaction concentration respectively. 5 μL substrate in Reaction Buffer was added to columns 23 and 24 to give 100 nM reaction concentration. 4 μL ATP in Reaction Buffer was added to all wells to give 150 μM reaction concentration. The reaction mixture was then incubated at room temperature for 60 minutes. The incubation period was followed by the addition of 20 μL IMAP Binding Reagent in Binding Buffer to all wells. The IMAP reaction detection was further incubated at room temperature overnight. The FP on a Tecan Ultra Plate reader was recorded as a single read at Ex485 Em535.
Percentage inhibition was calculated based on activity of the test sample minus the average values in the blank wells relative to the average values measured in control wells minus the average values in the blank wells.
IC50 values were calculated from 10 point dose sigmoid ‘dose-response’ curves using XIfit software (IDBS Inc, USA). Data were fitted to a 4 parameter logistic model/sigmoidal dose response defined by the following equation:
[formula] where: • A=fit minimum (locked to 0); • B=fit maximum (locked to 100); • C=fit midpoint (pre-fit to 1); and • D=slope at linear portion of curve, hillslope (pre-fit to 0.1).
The value for C represents the IC50 of the test compound.

[1] = first data set, recombinant AXL isoform 1 aa473-894, 150 μM ATP
[2] = further data set (WW-001 through WW-169, XX-001 through XX-469, YY-001 through YY-016, ZZ-001 through ZZ-003), 150 μM ATP

SMILES | IC50 [1] | IC50 [2] [µM]
COc1ccc(-c2cccc3nc(Nc4ccc(OCCNCc5ccccc5)cc4)nn23)cc1 | < 1 µM and 0.114 µM | 1 to 10
O=C(Nc1nc2cccc(-c3ccccc3)n2n1)C1CC1 [WW-001, Cyclopropanecarboxylic acid (5-phenyl-[1,2,4]triazolo[1,5-a]pyridin-2-yl)-amide] | < 1 µM | 0.1 to 1
CC(=O)Nc1cccc(-c2cccc3nc(NC(=O)C4CC4)nn23)c1 [WW-002, Cyclopropanecarboxylic acid [5-(3-acetylamino-phenyl)-[1,2,4]triazolo [1,5-a]pyridin-2-yl]-amide] | 1 to 10 µM | 1 to 10
CN1CCN(c2ccc(-c3cccc4nc(NC(=O)C5CC5)nn34)cc2)CC1 [WW-003, Cyclopropanecarboxylic acid {5-[4-(4-methyl-piperazin-1-yl)-phenyl]-[1,2,4]triazolo [1,5-a]pyridin-2-yl}-amide] | 1 to 10 µM | 1 to 10
O=C(Nc1nc2cccc(-c3cccc(Cl)c3)n2n1)C1CC1 [WW-004, Cyclopropanecarboxylic acid [5-(3-chloro-phenyl)-[1,2,4]triazolo[1,5-a]pyridin-2-yl]-amide] | 1 to 10 µM | 1 to 10
COc1ccc(-c2cccc3nc(NC(=O)C4CC4)nn23)cc1 [WW-005, cyclopropanecarboxylic acid [5-(4-methoxy-phenyl)-[1,2,4]triazolo[1,5-a]pyridin-2-yl]-amide] | < 1 µM | 0.1 to 1
COc1ccc(-c2cccc3nc(NC(=O)C4CC4)nn23)cn1 [WW-006, Cyclopropanecarboxylic acid [5-(6-methoxy-pyridin-3-yl)-[1,2,4]triazolo[1,5-a]pyridin-2-yl]-amide] | 1 to 10 µM | 1 to 10
O=C(Nc1nc2cccc(-c3cccc(F)c3)n2n1)C1CC1 [WW-007, Cyclopropanecarboxylic acid [5-(3-fIuoro-phenyl)-[1,2,4]triazolo[1,5-a]pyridin-2-yl]-amide] | 1 to 10 µM | 1 to 10
Cc1cc(-c2cccc3nc(NC(=O)C4CC4)nn23)cc(C)c1O [WW-008, Cyclopropanecarboxylic acid [5-(4-hydroxy-3,5-dimethyl-phenyl)-[1,2,4]triazolo[1,5-a]pyridin-2-yl]-amide] | 1 to 10 µM | 1 to 10
CN(C)CCNC(=O)c1ccc(-c2cccc3nc(NC(=O)C4CC4)nn23)cc1 [WW-009, 4-[2-(Cyclopropanecarbonyl-amino)-[1,2,4]triazolo[1,5-a]pyridin-5-yl]-N-(2-dimethylamino-ethyl)-benzamide] | 1 to 10 µM | 1 to 10
COc1ccc(-c2cccc3nc(NC(=O)C4CC4)nn23)c(OC)c1 [WW-010, Cyclopropanecarboxylic acid [5-(2,4-dimethoxy-phenyl)-[1,2,4]triazolo[1,5-a]pyridin-2-yl]-amide] | 1 to 10 µM | 1 to 10
CS(=O)(=O)Nc1cccc(-c2cccc3nc(NC(=O)C4CC4)nn23)c1 [WW-011, Cyclopropanecarboxylic acid [5-(3-methanesulfonylamino-phenyl)-[1,2,4]triazolo[1,5-a]pyridin-2-yl]-amide] | 1 to 10 µM | 1 to 10
O=C(Nc1nc2cccc(-c3ccc(F)cc3)n2n1)C1CC1 [WW-013] | 1 to 10 µM | 1 to 10
CS(=O)(=O)c1ccc(-c2cccc3nc(NC(=O)C4CC4)nn23)cc1 [WW-014] | 1 to 10 µM | 1 to 10
NC(=O)c1cccc(-c2cccc3nc(NC(=O)C4CC4)nn23)c1 [WW-015] | 1 to 10 µM | 1 to 10
COCc1ccc(-c2cccc3nc(NC(=O)C4CC4)nn23)cc1 [WW-016] | 1 to 10 µM | 1 to 10
CS(=O)(=O)Nc1ccc(-c2cccc3nc(NC(=O)C4CC4)nn23)cc1 [WW-017] | 1 to 10 µM | 1 to 10
O=C(Nc1nc2cccc(-c3ccc4[nH]ccc4c3)n2n1)C1CC1 [WW-018] | < 1 µM | 0.1 to 1
NC(=O)c1ccc(-c2cccc3nc(NC(=O)C4CC4)nn23)cc1 [WW-019] | 1 to 10 µM | 1 to 10
O=C(Nc1nc2cccc(-c3cccc(O)c3)n2n1)C1CC1 [WW-020] | 1 to 10 µM | 1 to 10
O=C(Nc1nc2cccc(-c3ccc(O)cc3)n2n1)C1CC1 [WW-022, cyclopropanecarboxylic acid [5-(4-hydroxy-phenyl)-[1,2,4]triazolo[1,5-a]pyridin-2-yl]-amide] | < 1 µM | 0.1 to 1

SMILES | IC50 [1] | IC50 [2] [µM]
O=C(Nc1nc2cccc(-c3ccc(Cl)cc3)n2n1)C1CC1 [WW-023] | 1 to 10 µM | 1 to 10
COc1cccc(-c2cccc3nc(NC(=O)C4CC4)nn23)c1 [WW-024] | 1 to 10 µM | 1 to 10
O=C(Nc1nc2cccc(-c3ccccc3F)n2n1)C1CC1 [WW-025] | 1 to 10 µM | 1 to 10
O=C(Nc1nc2cccc(-c3ccc(N4CCOCC4)cc3)n2n1)C1CC1 [WW-026] | < 1 µM | 0.1 to 1
O=C(Nc1nc2cccc(-c3ccc(CO)cc3)n2n1)C1CC1 [WW-027] | 1 to 10 µM | 1 to 10
O=C(Nc1nc2cccc(-c3cccc(CO)c3)n2n1)C1CC1 [WW-028] | 1 to 10 µM | 1 to 10
CN(C)C(=O)c1ccc(-c2cccc3nc(NC(=O)C4CC4)nn23)cc1 [WW-029] | 1 to 10 µM | 1 to 10
O=C(Nc1nc2cccc(-c3ccnc(F)c3)n2n1)C1CC1 [WW-030] | 1 to 10 µM | 1 to 10
O=C(Nc1nc2cccc(-c3ccc(C(F)(F)F)cc3)n2n1)C1CC1 [WW-031] | 1 to 10 µM | 1 to 10
O=C(Nc1nc2cccc(-c3cccc(C(F)(F)F)c3)n2n1)C1CC1 [WW-033] | 1 to 10 µM | 1 to 10
Cc1cccc(-c2cccc3nc(NC(=O)C4CC4)nn23)c1 [WW-034] | 1 to 10 µM | 1 to 10
CCOc1ccc(-c2cccc3nc(NC(=O)C4CC4)nn23)cc1 [WW-035] | < 1 µM | 0.1 to 1
CN(C)c1ccc(-c2cccc3nc(NC(=O)C4CC4)nn23)cn1 [WW-036] | 1 to 10 µM | 1 to 10
O=C(Nc1nc2cccc(-c3ccccc3O)n2n1)C1CC1 [WW-037] | 1 to 10 µM | 1 to 10
COc1ccc(-c2cccc3nc(NC(=O)CC4CC4)nn23)cc1 [WW-038] | 1 to 10 µM | 1 to 10
COc1ccc(-c2cccc3nc(NC(C)=O)nn23)cc1 [WW-039] | 1 to 10 µM | 1 to 10
CCC(=O)Nc1nc2cccc(-c3ccc(OC)cc3)n2n1 [WW-040] | 1 to 10 µM | 1 to 10
COCC(=O)Nc1nc2cccc(-c3ccc(OC)cc3)n2n1 [WW-041] | 1 to 10 µM | 1 to 10
COc1ccc(-c2cccc3nc(NC(=O)C4CCC4)nn23)cc1 [WW-042] | 1 to 10 µM | 1 to 10
COc1ccc(-c2cccc3nc(NC(=O)CC(C)C)nn23)cc1 [WW-043] | 1 to 10 µM | 1 to 10
COc1ccc(-c2cccc3nc(NC(=O)C4CCCC4)nn23)cc1 [WW-046] | 1 to 10 µM | 1 to 10
